Laboratory results from US20260295053A1, “COMPOUNDS FOR DEGRADATION AND INHIBITION OF KRAS (G12D) PROTEIN” (Shenzhen Ionova Life Science Co., Ltd., priority 2023, published 2026).

Target: T1, KRAS (G12D) (Homo sapiens, UniProt P01116, G12D)
T1 construct: in-cell western with KRAS G12D antibody after 24 h
Assay: KRAS (G12D) cellular degradation assay in AsPC-1 cells
Type: cell-based
Settings: 24 hours, antibody fluorescence (Odyssey CLX), DC50 half-maximal degradation concentration
In short: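 Half-maximal degradation (DC50) and inhibition (IC50) concentrations are fitted from dose-response curves spanning […] to 1.5 nM final. KRAS G12D loss is measured by fluorescent antibody staining with β-actin reference after 24 h; growth is measured by ATP luminescence after a 6-day exposure.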

T1 sequence (P01116 1-188 isoform P01116-2 G12D): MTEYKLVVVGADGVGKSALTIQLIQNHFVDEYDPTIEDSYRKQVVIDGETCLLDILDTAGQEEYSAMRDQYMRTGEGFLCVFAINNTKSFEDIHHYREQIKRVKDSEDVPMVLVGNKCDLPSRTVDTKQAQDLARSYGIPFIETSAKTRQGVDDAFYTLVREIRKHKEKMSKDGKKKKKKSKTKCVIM

SMILES | DC50
CCn1cc2cccc(C#C[C@H](CO)NC(=O)[C@@H]3C[C@@H](O)CN3C(=O)[C@H](C(C)C)n3cc(-c4ccc(COc5c(-c6c(C)c(F)cc7[nH]ncc67)c(C6CC6)cc6c(N7C[C@@H]8C[C@H]7CN8)nc(O[C@H]7C[C@H](OC)C7)nc56)cc4)nn3)c2n1 [Example 168, (2S,4R)-1-((2S)-2-(4-(4-(((4-((1S,4S)-2,5-diazabicyclo[2.2.1]heptan-2-yl)-6-cyclopropyl-7-(6-fluoro-5-methyl-1H-indazol-4-yl)-2-((1r,3S)-3-methoxycyclobutoxy)quinazolin-8-yl)oxy)methyl)phenyl)-1H-1,2,3-triazol-1-yl)-3-methylbutanoyl)-N—((R)-4-(2-ethyl-2H-indazol-7-yl)-1-hydroxybut-3-yn-2-yl)-4-hydroxypyrrolidine-2-carboxamide] | 10 to 100 nM
CCn1ncc2cccc(C#C[C@H](CO)NC(=O)[C@@H]3C[C@@H](O)CN3C(=O)[C@H](C(C)C)n3cc(-c4ccc(COc5c(-c6c(C)c(F)cc7[nH]ncc67)c(C6CC6)cc6c(N7C[C@@H]8C[C@H]7CN8)nc(O[C@H]7C[C@H](OC)C7)nc56)cc4)nn3)c21 [Example 172, (2S,4R)-1-((2S)-2-(4-(4-(((4-((1S,4S)-2,5-diazabicyclo[2.2.1]heptan-2-yl)-6-cyclopropyl-7-(6-fluoro-5-methyl-1H-indazol-4-yl)-2-((1r,3S)-3-methoxycyclobutoxy)quinazolin-8-yl)oxy)methyl)phenyl)-1H-1,2,3-triazol-1-yl)-3-methylbutanoyl)-N—((R)-4-(1-ethyl-1H-indazol-7-yl)-1-hydroxybut-3-yn-2-yl)-4-hydroxypyrrolidine-2-carboxamide] | 10 to 100 nM
CCn1nccc1-c1ccc([C@H](CO)NC(=O)[C@@H]2C[C@@H](O)CN2C(=O)[C@H](C(C)C)n2cc(-c3ccc(COc4c(-c5c(C)c(F)cc6[nH]ncc56)c(C5CC5)cc5c(N6CCC(C#N)CC6)nc(OC[C@H](C)OC)nc45)cc3)nn2)cc1 [Example 174, (2S,4R)-1-((2S)-2-(4-(4-(((4-(4-cyanopiperidin-1-yl)-6-cyclopropyl-7-(6-fluoro-5-methyl-1H-indazol-4-yl)-2-((S)-2-methoxypropoxy)quinazolin-8-yl)oxy)methyl)phenyl)-1H-1,2,3-triazol-1-yl)-3-methylbutanoyl)-N—((R)-1-(4-(1-ethyl-1H-pyrazol-5-yl)phenyl)-2-hydroxyethyl)-4-hydroxypyrrolidine-2-carboxamide] | 10 to 100 nM
CO[C@@H](C)COc1nc(N(C)[C@H]2CCNC2)c2cc(C3CCC3)c(-c3c(C)c(F)c(F)c4[nH]ncc34)c(OCc3ccc(-c4cn([C@H](C(=O)N5C[C@H](O)C[C@H]5C(=O)N[C@H](c5ccc(-c6scnc6C)cc5)[C@@H](C)O)C(C)C)nn4)cc3)c2n1 [Example 175, (2S,4R)-1-((2S)-2-(4-(4-(((6-cyclobutyl-7-(6,7-difluoro-5-methyl-1H-indazol-4-yl)-2-((S)-2-methoxypropoxy)-4-(methyl((S)-pyrrolidin-3-yl)amino)quinazolin-8-yl)oxy)methyl)phenyl)-1H-1,2,3-triazol-1-yl)-3-methylbutanoyl)-4-hydroxy-N-((1R,2R)-2-hydroxy-1-(4-(4-methylthiazol-5-yl)phenyl)propyl)pyrrolidine-2-carboxamide] | 10 to 100 nM
CCn1nccc1-c1ccc([C@H](CO)NC(=O)[C@@H]2C[C@@H](O)CN2C(=O)[C@H](C(C)C)n2cc(-c3ccc(COc4c(-c5c(C)c(F)cc6[nH]ncc56)c(C5CC5)cc5c(N6CCCC(C#N)CC6)nc(OC[C@H](C)OC)nc45)cc3)nn2)cc1 (stereo partly drawn) [Example 182, (2S,4R)-1-((2S)-2-(4-(4-(((4-(4-cyanoazepan-1-yl)-6-cyclopropyl-7-(6-fluoro-5-methyl-1H-indazol-4-yl)-2-((S)-2-methoxypropoxy)quinazolin-8-yl)oxy)methyl)phenyl)-1H-1,2,3-triazol-1-yl)-3-methylbutanoyl)-N—((R)-1-(4-(1-ethyl-1H-pyrazol-5-yl)phenyl)-2-hydroxyethyl)-4-hydroxypyrrolidine-2-carboxamide] | 10 to 100 nM
CCn1nccc1-c1ccc([C@H](CO)NC(=O)[C@@H]2C[C@@H](O)CN2C(=O)[C@H](C(C)C)n2cc(-c3ccc(COc4c(-c5c(C)c(F)cc6[nH]ncc56)c(C5CC5)cc5c(N6CCNCC[C@@H]6C)nc(OC[C@H](C)OC)nc45)cc3)nn2)cc1 [Example 183, (2S,4R)-1-((2S)-2-(4-(4-(((6-cyclopropyl-7-(6-fluoro-5-methyl-1H-indazol-4-yl)-2-((S)-2-methoxypropoxy)-4-((S)-7-methyl-1,4-diazepan-1-yl)quinazolin-8-yl)oxy)methyl)phenyl)-1H-1,2,3-triazol-1-yl)-3-methylbutanoyl)-N—((R)-1-(4-(1-ethyl-1H-pyrazol-5-yl)phenyl)-2-hydroxyethyl)-4-hydroxypyrrolidine-2-carboxamide] | 10 to 100 nM
CO[C@@H](C)COc1nc(N2C[C@@H]3C[C@H]2CN3)c2cc(C3CC3)c(-c3c(C)c(F)cc4[nH]ncc34)c(OCc3ccc(-c4cn([C@H](C(=O)N5C[C@H](O)C[C@H]5C(=O)N[C@H](C#Cc5cncc6nn(C)cc56)CO)C(C)C)nn4)cc3)c2n1 [Example 185, (2S,4R)-1-((2S)-2-(4-(4-(((4-((1S,4S)-2,5-diazabicyclo[2.2.1]heptan-2-yl)-6-cyclopropyl-7-(6-fluoro-5-methyl-1H-indazol-4-yl)-2-((S)-2-methoxypropoxy)quinazolin-8-yl)oxy)methyl)phenyl)-1H-1,2,3-triazol-1l-yl)-3-methylbutanoyl)-4-hydroxy-N—((R)-1-hydroxy-4-(2-methyl-2H-pyrazolo[3,4-c]pyridin-4-yl)but-3-yn-2-yl)pyrrolidine-2-carboxamide] | 10 to 100 nM
CO[C@@H](C)COc1nc(N2C[C@@H]3C[C@H]2CN3)c2cc(C3CC3)c(-c3c(C)c(F)cc4[nH]ncc34)c(OCc3ccc(-c4cn([C@H](C(=O)N5C[C@H](O)C[C@H]5C(=O)N[C@H](C#Cc5ccnc6nn(C)cc56)CO)C(C)C)nn4)cc3)c2n1 [Example 191, (2S,4R)-1-((2S)-2-(4-(4-(((4-((1S,4S)-2,5-diazabicyclo[2.2.1]heptan-2-yl)-6-cyclopropyl-7-(6-fluoro-5-methyl-1H-indazol-4-yl)-2-((S)-2-methoxypropoxy)quinazolin-8-yl)oxy)methyl)phenyl)-1H-1,2,3-triazol-1-yl)-3-methylbutanoyl)-4-hydroxy-N—((R)-1-hydroxy-4-(2-methyl-2H-pyrazolo[3,4-b]pyridin-4-yl)but-3-yn-2-yl)pyrrolidine-2-carboxamide] | 10 to 100 nM
CCn1nccc1-c1ccc([C@@H](NC(=O)[C@@H]2C[C@@H](O)CN2C(=O)[C@H](C(C)C)n2cc(-c3ccc(COc4c(-c5c(C)c(F)cc6[nH]ncc56)c(C5CC5)cc5c(N6C[C@@H]7C[C@H]6CN7)nc(O[C@H]6C[C@H](OC)C6)nc45)cc3)nn2)[C@H](C)O)nc1 [Example 200, (2S,4R)-1-((2S)-2-(4-(4-(((4-((1S,4S)-2,5-diazabicyclo[2.2.1]heptan-2-yl)-6-cyclopropyl-7-(6-fluoro-5-methyl-1H-indazol-4-yl)-2-((1r,3S)-3-methoxycyclobutoxy)quinazolin-8-yl)oxy)methyl)phenyl)-1H-1,2,3-triazol-1-yl)-3-methylbutanoyl)-N-((1R,2S)-1-(5-(1-ethyl-1H-pyrazol-5-yl)pyridin-2-yl)-2-hydroxypropyl)-4-hydroxypyrrolidine-2-carboxamide] | < 10 nM
